Three molecules from US6403112B2, “Ectoin and ectoin derivatives as moisturizers in cosmetics” (Merck Patent Gesellschaft mit beschrankter, priority 1993, dated 2002) can be followed below.

The data set can be described thus: Water absorption capacity at 65% relative atmospheric humidity. As to conditions: relative atmospheric humidity of 65%; 1 g of anhydrous substance kept in sealed chamber until weight is constant. The data set is classed as physicochemical. The method, then: A) Water absorption capacity The water absorption capacity of the compound of Example 1 is determined at a relative atmospheric humidity of 65%. The control substances used are in each case glycerol and propylene glycol. In each case 1 g of the anhydrous substance is kept in a sealed chamber until the weight is constant. The water absorption capacity is calculated as follows: [formula] Ectoin has a water absorption of 25% and, in comparison with glycerol or propylene glycol (60 and 45%, respectively) a less pronounced hygroscopic behavior. However, with regard to its use as a moisturizer, the dehydrating effect known from unduly high glycerol concentrations can be ruled out.

Each structure is given as a SMILES string.

For `CC1=N[C@H](C(=O)O)CCN1` [Ectoin, (S)-1,4,5,6-tetrahydro-2-methyl-4-pyrimidinecarboxylic acid], the water absorption is reported as 25%. For `OCC(O)CO` [glycerol] the value was 60%; for `CC(O)CO` (stereo not drawn) [propylene glycol], 45%.
